# Assay results as given in publication PMC9652372, “Glycolytic flux control by drugging phosphoglycolate phosphatase” (Nature Communications, 2022).
# Where “and” joins values, the source holds several entries; their conditions need not be identical. Identical values can stand only once.
# Columns and labels:
# murine PDXP/PGP hybrid = target: T1, murine PDXP/PGP hybrid (Mus musculus, UniProt P60487+Q8CHP8); experiment: PG dephosphorylation by PDXP/PGP hybrid protein; type: biochemical
# T1 construct: consisting of the PGP cap domain (amino acids 114–233) fused to the PDXP core domain; His6 (N, cleaved yes); made in house; host or cells: Escherichia coli BL21 (DE3), pETM11
# T1 sequence (P60487 1-100): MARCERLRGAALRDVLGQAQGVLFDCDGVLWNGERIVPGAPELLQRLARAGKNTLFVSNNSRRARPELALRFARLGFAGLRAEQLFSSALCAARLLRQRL
# T1 sequence (Q8CHP8 114-233): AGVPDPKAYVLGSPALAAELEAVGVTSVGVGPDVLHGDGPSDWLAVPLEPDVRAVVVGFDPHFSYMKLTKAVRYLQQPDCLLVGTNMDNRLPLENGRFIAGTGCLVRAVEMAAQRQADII
# T1 sequence (P60487 208-292): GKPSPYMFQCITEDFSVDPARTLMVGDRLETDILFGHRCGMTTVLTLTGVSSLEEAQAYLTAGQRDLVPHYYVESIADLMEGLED
# Method: After centrifugation, cells were resuspended in TNM-2 (100 mM triethanolamine, 500 mM NaCl, 20 mM imidazole, 5 mM MgCl2; pH 7.4). Cleared supernatants were loaded on a HisTrap HP nickel sepharose column in TNM-3 (50 mM triethanolamine, 500 mM NaCl, 20 mM imidazole, 5 mM MgCl2; pH 7.4), and His6-tagged proteins were eluted using a linear gradient of up to 50% TNM-4 (50 mM triethanolamine; 250 mM NaCl; 500 mM imidazole; 5 mM MgCl2; pH 7.4). Peak fractions were pooled, the His6-tag was cleaved, and untagged PDXP or PDXP/PGP was isolated, concentrated and further purified by size exclusion chromatography in TNM-5 (50 mM triethanolamine; 250 mM NaCl; 5 mM MgCl2; pH 7.4). […] Data were analyzed with GraphPad Prism 7.04.
# murine PGP-WT = target: T2, murine PGP-WT (Mus musculus, UniProt Q8CHP8); experiment: Isothermal titration calorimetry, PGP-WT; type: binding; settings: ITC; for Kd: murine PGP
# T2 construct: His6 (N, cleaved yes); made in house; host or cells: Escherichia coli BL21 (DE3), pETM11, co-expressed with groES-groEL-tig
# T2 sequence (Q8CHP8 1-321): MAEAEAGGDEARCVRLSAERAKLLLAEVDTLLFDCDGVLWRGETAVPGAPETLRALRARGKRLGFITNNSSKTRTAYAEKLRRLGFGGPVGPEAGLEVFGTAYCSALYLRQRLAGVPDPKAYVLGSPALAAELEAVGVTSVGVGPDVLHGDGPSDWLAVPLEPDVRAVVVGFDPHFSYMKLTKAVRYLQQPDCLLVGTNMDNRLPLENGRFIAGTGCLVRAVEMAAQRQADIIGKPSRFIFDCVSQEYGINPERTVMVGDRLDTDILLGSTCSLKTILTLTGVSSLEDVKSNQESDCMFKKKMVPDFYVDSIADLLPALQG
# Method: Purified murine PGP-WT or PGP-P127E was dialyzed overnight against ITC buffer (30 mM HEPES, 30 mM NaCl, 5 mM MgCl2, 1 mM tris(2-carboxyethyl)phosphine/TCEP; pH 7.5). All calorimetric measurements were performed at 25 °C on an ITC200 microcalorimeter (GE Healthcare). Experiments were conducted with a fixed concentration of 2% DMSO. […] To reduce the effects of ligand leakage from the syringe during baseline equilibration, the heat release of a single 1.2 μL injection was recorded prior to the actual titration experiment, and discarded during data analysis with Nitpic 2.0.7[45]. To determine background heats of dilution, control experiments of ligand into buffer, buffer into protein and buffer into buffer titrations were performed.
# PGP^WT = target: T3, PGP^WT (Mus musculus, UniProt Q8CHP8); experiment: Differential scanning fluorimetry (Thermofluor); type: binding
# T3 construct: His6 (N, cleaved yes); made in house; host or cells: Escherichia coli BL21 (DE3), pETM11, co-expressed with groES-groEL-tig
# T3 sequence (Q8CHP8 1-321): T2 sequence (Q8CHP8 1-321)
# physchem = settings: organic solvent or mixture
# murine PGP [1] = target: T4, murine PGP (Mus musculus, UniProt Q8CHP8); experiment: biochemical
# T4 sequence (Q8CHP8 1-321): T2 sequence (Q8CHP8 1-321)
# murine PDXP = target: T5, murine PDXP (Mus musculus, UniProt P60487); experiment: PDXP activity towards pyridoxal 5'-phosphate (PLP); settings: phosphatase PDXP; species M.m.; substrate PLP; n.s. = no significant inhibition detectable
# T5 sequence (P60487 1-292): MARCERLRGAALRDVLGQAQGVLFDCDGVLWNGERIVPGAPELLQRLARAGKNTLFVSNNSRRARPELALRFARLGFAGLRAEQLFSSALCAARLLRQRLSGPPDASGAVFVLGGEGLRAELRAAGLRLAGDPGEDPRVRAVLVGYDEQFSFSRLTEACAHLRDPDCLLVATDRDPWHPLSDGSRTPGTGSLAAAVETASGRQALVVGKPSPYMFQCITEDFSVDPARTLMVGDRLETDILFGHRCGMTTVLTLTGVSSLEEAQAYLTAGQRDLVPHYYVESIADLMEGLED
# murine PGP [2] = target: T4, murine PGP; experiment: IC50 determination, murine PGP, pNPP dephosphorylation
# PGP = target: T6, PGP (Mus musculus, UniProt Q8CHP8); experiment: Steady state kinetics of PG dephosphorylation in presence of CP1-3
# T6 sequence (Q8CHP8 1-321): T2 sequence (Q8CHP8 1-321)
# [3] = PG dephosphorylation, increasing CP concentrations
compound,measurement,setting,value
O=C(O)c1cc(Nc2ccccc2C(=O)O)nc(Nc2ccccc2C(=O)O)n1 [CP3],remaining activity at 16 µM,"murine PDXP/PGP hybrid; activity, control = 100, CP log[M] -4.79588",1.8%
same,remaining activity at 4 µM,"murine PDXP/PGP hybrid; activity, control = 100, CP log[M] -5.39794",13.3%
same,remaining activity at 1 µM,"murine PDXP/PGP hybrid; activity, control = 100, CP log[M] -6",41.6%
same,remaining activity at 0.5 µM,"murine PDXP/PGP hybrid; activity, control = 100, CP log[M] -6.30103",58.4%
same,remaining activity at […],"murine PDXP/PGP hybrid; activity, control = 100, CP log[M] -6.60206",73.5%
same,remaining activity at 0.125 µM,"murine PDXP/PGP hybrid; activity, control = 100, CP log[M] -6.90309",84.1%
same,remaining activity at 0.0625 µM,"murine PDXP/PGP hybrid; activity, control = 100, CP log[M] -7.20412",89.4%
same,remaining activity at 0.015625 µM,"murine PDXP/PGP hybrid; activity, control = 100, CP log[M] -7.80618",103%
same,IC50,"murine PDXP/PGP hybrid; phosphatase PDXP/PGP, species M.m., substrate PG",970 ± 20 nM
same,Kd,"murine PGP-WT; 25 °C, mean ± S.E.M., n = 3",430 nM
same,Kd,murine PGP-WT; single replicates,500 nM and 320 nM and 460 nM
same,dG,murine PGP-WT; single replicates,-8.598 kcal/mol and -8.862 kcal/mol and -8.651 kcal/mol
same,dH,murine PGP-WT; single replicates,-6.466 kcal/mol and -5.835 kcal/mol and -6.568 kcal/mol
same,dS,murine PGP-WT; single replicates,7.151 cal/Mol*K and 10.151 cal/Mol*K and 6.986 cal/Mol*K
same,TM,PGP^WT; Inhibitor 0.244141 µM,66.6 °C
same,TM,PGP^WT; Inhibitor 0.488281 µM,66.7 °C
same,TM,PGP^WT; Inhibitor 0.976562 µM,67.0 °C
same,TM,PGP^WT; Inhibitor 1.95312 µM,67.3 °C
same,TM,PGP^WT; Inhibitor 3.90625 µM,68.1 °C
same,TM,PGP^WT; Inhibitor 7.8125 µM,69.0 °C
same,TM,PGP^WT; Inhibitor 15.625 µM,70.4 °C
same,TM,PGP^WT; Inhibitor 31.25 µM,71.2 °C
same,TM,PGP^WT; Inhibitor 62.5 µM,72.1 °C
same,TM,PGP^WT; Inhibitor 125 µM,72.8 °C
same,TM,PGP^WT; Inhibitor 250 µM,73.4 °C
same,solubility,physchem,50 mM
same,IC50,murine PGP [1],810 nM and 1000 nM
same,IC50,murine PDXP,n.s.
same,IC50,murine PGP [2],13500 ± 2510 nM
same,remaining activity at 10 µM,"murine PGP [2]; read-out: M.m PGP on pNPP, activity, control = 100.00, CP log[M] -5",45.5%
same,remaining activity at 5 µM,"murine PGP [2]; read-out: M.m PGP on pNPP, activity, control = 100.00, CP log[M] -5.30103",61.5%
same,remaining activity at […],"murine PGP [2]; read-out: M.m PGP on pNPP, activity, control = 100.00, CP log[M] -5.60206",74.3%
same,remaining activity at 80 µM,"murine PGP [2]; read-out: M.m PGP on pNPP, activity, control = 100.00, Log CP3 [M] -4.09691",12.6%
same,remaining activity at 40 µM,"murine PGP [2]; read-out: M.m PGP on pNPP, activity, control = 100.00, Log CP3 [M] -4.39794",20.3%
same,remaining activity at 20 µM,"murine PGP [2]; read-out: M.m PGP on pNPP, activity, control = 100.00, Log CP3 [M] -4.69897",33.2%
same,remaining activity at 1.25 µM,"murine PGP [2]; read-out: M.m PGP on pNPP, activity, control = 100.00, Log CP3 [M] -5.90309",85.2%
same,remaining activity at 0.625 µM,"murine PGP [2]; read-out: M.m PGP on pNPP, activity, control = 100.00, Log CP3 [M] -6.20412",88.3%
same,remaining activity at 0.3125 µM,"murine PGP [2]; read-out: M.m PGP on pNPP, activity, control = 100.00, Log CP3 [M] -6.50515",93.8%
same,remaining activity at 0.15625 µM,"murine PGP [2]; read-out: M.m PGP on pNPP, activity, control = 100.00, Log CP3 [M] -6.80618",98.4%
same,remaining activity at 0.078125 µM,"murine PGP [2]; read-out: M.m PGP on pNPP, activity, control = 100.00, Log CP3 [M] -7.10721",101%
same,mode of PGP inhibition,PGP,competitive inhibitors
same,PGP activity,"PGP; 1 µM CP3, PG 50 µM",2.463 µmol Pi/min/mg and 2.403 µmol Pi/min/mg and 1.502 µmol Pi/min/mg
same,PGP activity,"PGP; 1 µM CP3, PG 100 µM",5.226 µmol Pi/min/mg and 4.205 µmol Pi/min/mg
same,PGP activity,"PGP; 1 µM CP3, PG 200 µM",10.3316 µmol Pi/min/mg and 9.671 µmol Pi/min/mg and 8.89 µmol Pi/min/mg
same,PGP activity,"PGP; 1 µM CP3, PG 300 µM",14.7802 µmol Pi/min/mg and 14.2395 µmol Pi/min/mg and 12.9778 µmol Pi/min/mg
same,PGP activity,"PGP; 1 µM CP3, PG 400 µM",17.1234 µmol Pi/min/mg and 17.6642 µmol Pi/min/mg and 16.5827 µmol Pi/min/mg
same,PGP activity,"PGP; 1 µM CP3, PG 500 µM",20.9086 µmol Pi/min/mg and 20.1877 µmol Pi/min/mg and 22.1704 µmol Pi/min/mg
same,PGP activity,"PGP; 1 µM CP3, PG 600 µM",22.1704 µmol Pi/min/mg and 21.0889 µmol Pi/min/mg and 23.7926 µmol Pi/min/mg
same,PGP activity,"PGP; 1 µM CP3, PG 700 µM",23.4321 µmol Pi/min/mg and 22.7111 µmol Pi/min/mg and 25.4148 µmol Pi/min/mg
same,PGP activity,"PGP; 1 µM CP3, PG 800 µM",25.7753 µmol Pi/min/mg and 22.1704 µmol Pi/min/mg and 24.3333 µmol Pi/min/mg
same,PGP activity,"PGP; 2 µM CP3, PG 100 µM",4.445 µmol Pi/min/mg and 3.364 µmol Pi/min/mg and 4.265 µmol Pi/min/mg
same,PGP activity,"PGP; 2 µM CP3, PG 200 µM",8.469 µmol Pi/min/mg and 7.448 µmol Pi/min/mg
same,PGP activity,"PGP; 2 µM CP3, PG 300 µM",12.437 µmol Pi/min/mg and 10.4543 µmol Pi/min/mg and 11.8963 µmol Pi/min/mg
same,PGP activity,"PGP; 2 µM CP3, PG 400 µM",15.6815 µmol Pi/min/mg and 12.7975 µmol Pi/min/mg and 14.7802 µmol Pi/min/mg
same,PGP activity,"PGP; 2 µM CP3, PG 500 µM",18.7457 µmol Pi/min/mg and 18.5654 µmol Pi/min/mg and 18.3852 µmol Pi/min/mg
same,PGP activity,"PGP; 2 µM CP3, PG 600 µM",19.6469 µmol Pi/min/mg and 20.7284 µmol Pi/min/mg
same,PGP activity,"PGP; 2 µM CP3, PG 700 µM",20.9086 µmol Pi/min/mg and 21.8099 µmol Pi/min/mg and 21.0889 µmol Pi/min/mg
same,PGP activity,"PGP; 2 µM CP3, PG 800 µM",21.4494 µmol Pi/min/mg and 22.3506 µmol Pi/min/mg and 22.7111 µmol Pi/min/mg
same,PGP activity,"PGP; 4 µM CP3, PG 100 µM",3.4839 µmol Pi/min/mg and 2.463 µmol Pi/min/mg and 3.424 µmol Pi/min/mg
same,PGP activity,"PGP; 4 µM CP3, PG 200 µM",6.547 µmol Pi/min/mg and 5.706 µmol Pi/min/mg and 6.728 µmol Pi/min/mg
same,PGP activity,"PGP; 4 µM CP3, PG 300 µM",9.553 µmol Pi/min/mg and 7.39 µmol Pi/min/mg and 12.7975 µmol Pi/min/mg
same,PGP activity,"PGP; 4 µM CP3, PG 400 µM",12.437 µmol Pi/min/mg and 10.4543 µmol Pi/min/mg and 15.321 µmol Pi/min/mg
same,PGP activity,"PGP; 4 µM CP3, PG 500 µM",15.6815 µmol Pi/min/mg and 15.5012 µmol Pi/min/mg and 17.484 µmol Pi/min/mg
same,PGP activity,"PGP; 4 µM CP3, PG 600 µM",16.763 µmol Pi/min/mg and 19.1062 µmol Pi/min/mg
same,PGP activity,"PGP; 4 µM CP3, PG 700 µM",16.763 µmol Pi/min/mg and 18.0247 µmol Pi/min/mg and 21.8099 µmol Pi/min/mg
same,PGP activity,"PGP; 4 µM CP3, PG 800 µM",17.3037 µmol Pi/min/mg and 18.2049 µmol Pi/min/mg and 22.5309 µmol Pi/min/mg
same,vmax,PGP; CP 1.0 µM,50.8 ± 4.1 µmol/min/mg
same,vmax,PGP; CP 2.0 µM,54.7 ± 4.9 µmol/min/mg
same,vmax,PGP; CP 4.0 µM,54.3 ± 11.9 µmol/min/mg
same,effect on vmax (reduction),PGP; [3],without affecting vmax
same,increase of KM,PGP; [3],~ 3 fold
